Experimental data from patent US7972611B2, “Fungus-induced inflammation and eosinophil degranulation” (Mayo Foundation for Medical Education and Research, priority 2005, dated 2011).
Where two headings read alike, the source gives them in different places.

Columns and labels:
[1] = system: aspartate protease(s) in Alternaria extract; assay: Inhibition of PAR-2 cleavage activity of Alternaria extract; assay type: biochemical; conditions: extract pretreated with inhibitor
Source text: (§1) FIG. 9. Effects of protease inhibitors on PAR-2 cleavage activity (Panel A) and EDN release activity (Panel B) of Alternaria extract. Alternaria extract, trypsin, or PMA was pretreated with pepstatin A agarose, control agarose, or APMSF, and added to the PAR-2 peptide substrate (Panel A) or eosinophils (Panel B). In Panel B, *, p<0.05 compared to no inhibitors, n=4.
(§2) A fluorescent quenched peptide substrate (Abz-SKGRSLIGK(Dnp)D) (SEQ ID NO:37), which spans the trypsin-cleavage site (between R and S) of PAR-2 was synthesized, and used it in an in vitro assay for PAR-2 cleavage and activation. […] Alternaria's activity was abolished when aspartate protease(s) was removed from the extract by pepstatin A agarose (FIG. 9); pepstatin A is a highly specific inhibitor for aspartate protease. […] Thus, an aspartate protease(s) in Alternaria extract, but not a serine protease(s), may be involved in the activation of eosinophils through PAR-2. this observation was confirmed by using other aspartate protease inhibitors, including alkalo-thermophilic bacillus inhibitor (ATBI), nelfinavir, and ritonavir.

trypsin = assay: Inhibition of trypsin cleavage of PAR-2 peptide substrate; assay type: biochemical
Source text: as §1, §2

eosinophils = assay type: cell-based, human; conditions: for eosinophil degranulation (EDN release) induced by Alternaria extract: 3 hours at 37° C.
Protocol: FIG. 9. […] Alternaria extract, trypsin, or PMA was pretreated with pepstatin A agarose, control agarose, or APMSF, and added to the PAR-2 peptide substrate (Panel A) or eosinophils (Panel B).
(§3) To monitor eosinophil function in response to extracts from Alternaria, degranulation of human eosinophils was measured by quantitating released eosinophil-derived neurotoxin (EDN) and/or MBP. In brief, freshly isolated eosinophils were suspended in HBSS with 25 mM HEPES and 0.01% gelatin at 5×10^5 cells/mL. Eosinophils and stimuli were incubated in 96-well tissue culture plates for 3 hours at 37° C. and 5% CO^2. Cell-free supernatants were stored at −20° C. A specific RIA quantitated eosinophil degranulation by measuring the concentration of EDN in the supernatants.

patients with CRS [2] = assay: Randomized, placebo-controlled, double-blind trial of intranasal amphotericin B in CRS patients; assay type: in vivo, human; conditions: 6 months
Protocol: Second, to address the efficacy of intranasal antifungal agents more objectively, a randomized, placebo-controlled, double-blind, single center trial was performed to treat 30 randomly selected CRS patients. Patients instilled 20 mL amphotericin B (250 μg/mL) or placebo to each nostril twice daily for 6 months. Twenty-four patients completed the 6 months of treatment. […] The changes in the endoscopic scores improved in the amphotericin B group compared to placebo (p=0.038). […] Some patients responded well to the treatment, but others not as well. Thus, fungi may be important in the development of CRS in certain patients.

patients with CRS [3] = assay: Open-label pilot trial of intranasal amphotericin B in CRS patients
Protocol: To examine the clinical significance of fungal colonization in CRS, two clinical trials were performed to examine the efficacy of anti-fungal agents. It was hypothesized that anti-fungal agents will reduce the fungal burden in the upper airways, resulting in less antigenic stimulation of immune cells, less airway inflammation, and improved clinical outcomes. […] This prospective, open-label trial used amphotericin B as a medical treatment in 51 randomly selected CRS patients. The antifungal was applied intranasally using 20 mL of a 100 μg/mL solution twice daily for a mean of 11 months (minimum of 3 months).

BEAS-2B cells = assay: Cytokine production by BEAS-2B airway epithelial cells; assay type: cell-based, human
Protocol: FIG. 10. Effects of fungi on IL-6 production by BEAS-2B cells. BEAS-2B cells were incubated with culture extracts of various fungi for 24 hours. IL-6 concentrations in the supernatants were measured by ELISA. *, p<0.05 compared to medium alone, n=3.
FIG. 11. Effects of an aspartate protease inhibitor, ritonavir, on IL-8 production by BEAS-2B cells. Alternaria extract or TNF-α was pretreated with ritonavir and added to BEAS-2B cells. IL-8 concentrations in the supernatants were measured after 24 hours. Data are normalized to the values without ritonavir as 100%. *, p<0.05 compared to no inhibitor, n=4.
Eosinophils may be the only cell that can recognize Alternaria. […] BEAS-2B stimulated with Alternaria also produced other pro-inflammatory factors such as IL-8 and GM-CSF. This Alternaria-induced IL-6 production was inhibited by ATBI, nelfinavir, ritonavir or pepstatin A-agarose treatment of Alternaria extract by about 60% to 90%; ritonavir results are shown in FIG. 11. In contrast, TNF-α-induced IL-6 production was not affected by these treatments. […] Thus, through its aspartate protease activity, Alternaria may activate airway epithelial cells; this activation is partially mediated by PAR-2.

PAR-2 = target: T1, PAR-2 (Homo sapiens, UniProt P55085); assay: Eosinophil calcium response to Alternaria extract after preincubation with PAR-2 peptides; assay type: cell-based; conditions: preincubation with peptide, 100 μM
T1 construct: endogenous in cells; host or cells: isolated human blood eosinophils
T1 sequence (P55085 26-397): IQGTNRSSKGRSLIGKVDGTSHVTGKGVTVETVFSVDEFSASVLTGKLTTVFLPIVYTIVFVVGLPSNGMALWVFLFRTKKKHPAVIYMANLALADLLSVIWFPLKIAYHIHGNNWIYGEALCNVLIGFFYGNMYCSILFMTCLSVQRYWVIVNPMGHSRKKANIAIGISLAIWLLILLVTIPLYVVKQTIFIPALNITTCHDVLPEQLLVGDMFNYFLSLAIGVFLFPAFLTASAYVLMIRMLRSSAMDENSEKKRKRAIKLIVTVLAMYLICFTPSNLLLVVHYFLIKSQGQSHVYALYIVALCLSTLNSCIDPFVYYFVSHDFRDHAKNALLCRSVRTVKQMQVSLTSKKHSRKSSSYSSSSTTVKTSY
Protocol: FIG. 8. Desensitization of eosinophil calcium response (Panel A) and EDN release (Panel B) by PAR-2 peptides. Cells were preincubated with PAR-2 agonist (SLIGKV; SEQ ID NO:38), PAR-2 antagonist (LSIGKV; SEQ ID NO:35) or control peptide (GLIVKS; SEQ ID NO:36) (all at 100 μM) before stimulation with Alternaria extract (Panel A) or with Alternaria extract, PAF or PMA (Panel B).
The majority of previous studies in anti-fungal immune responses used the following models: animal infection in in vivo systems (e.g., Candida albicans, Aspergillus fumigatus), or entire fungal hyphae or conidia (e.g., C. albicans, A. fumigatus), a yeast model (e.g., zymosan), and isolated fungal carbohydrate macromolecules (e.g., β-glucan, mannan) in in vitro systems. These studies pointed to roles for TLRs, in particular TLR2 and TLR4, and to other pattern recognition receptors that immune cells, such as macrophages and neutrophils, use to recognize fungi. Because eosinophils express little TLR2 or TLR4 and the active component(s) in Alternaria extract was a heat-labile molecule(s) with an approximate 30-50 kDa molecular mass (FIG. 6), it was speculated that an Alternaria-derived protease(s) (not carbohydrates), interacting with eosinophil PAR-2, may be involved in the eosinophils' responses to Alternaria. Sine no specific small molecule inhibitor for PAR-2 is available, a desensitization approach was used. […] In contrast, degranulation induced by PAF or PMA was not affected by the LSIGKV (SEQ ID NP:35) peptide. Thus, PAR-2 is likely involved in the eosinophils' calcium and degranulation responses to Alternaria extract.

PBMCs = assay: PBMC CD4+ T cell proliferation by CFSE labeling; assay type: cell-based, human; conditions: side-by-side experiment, day 7
[4] = system: PAR-2 peptide substrate (Abz-SKGRSLIGK(Dnp)D); assay: Fluorescent quenched PAR-2 peptide substrate cleavage assay; assay type: biochemical
Source text: as §1, §2

human eosinophils = assay: Eosinophil degranulation (EDN release) and activation by fungal extracts and proteins; assay type: cell-based; conditions: through PAR-2
Protocol: FIG. 5. Effects of fungi on eosinophil degranulation. Eosinophils were incubated with culture extracts of various fungi for 3 hours.
FIG. 21. Effects of Trichoderma xylanase on eosinophil degranulation (Panel A). Effects of Trichoderma xylanase on IL-5 production in mouse airways (Panel B). Panel A: Eosinophils were incubated with various concentrations of Trichoderma xylanase for 3 hours. EDN concentrations in the supernatants were measured by RIA as an indicator of degranulation. Panel B: Naive BALB/c mice were exposed intranasally to various doses of Trichoderma xylanase. After 12 hours, BAL fluids were collected and the concentrations of IL-5 were measured by ELISA. Mean±range, n=2.
FIG. 25. Partial characterization of Alternaria extract. A, Before incubation with eosinophils, aliquots of 100 μg/mL Alternaria and 10 ng/mL IL-5 were heated at 37, 56, or 100° C. for 30 min or were treated at 4° C. for 30 min. Eosinophils were incubated in duplicate with these treated stimuli for 3 hours at 37° C. […] The molecular weight calibration of the column is shown above the elution profile.
The following was performed to determine whether human eosinophils have an innate capacity to respond to environmental fungal organisms. Human eosinophils were incubated with extracts from common environmental airborne fungi.
as §3

## N=C(N)c1ccc(CS(=O)(=O)F)cc1 [APMSF]
[1]
  PAR-2 peptide cleavage activity of Alternaria extract: insensitive
trypsin
  PAR-2 peptide cleavage activity of trypsin: inhibited the activity
eosinophils
  eosinophil degranulation (EDN release) induced by Alternaria extract: not
eosinophils; listed as APSF
  eosinophil degranulation (EDN release) induced by Alternaria extract: did not inhibit

## C[C@@H]1[C@H](O)[C@@H](C)/C=C/C=C/C=C/C=C/C=C/C=C/C=C/[C@H](O[C@@H]2O[C@H](C)[C@@H](O)[C@H](N)[C@@H]2O)C[C@@H]2O[C@](O)(C[C@@H](O)C[C@@H](O)[C@H](O)CC[C@@H](O)C[C@@H](O)CC(=O)O[C@H]1C)C[C@H](O)[C@H]2C(=O)O [amphotericin B]
Patients with CRS [2]; increase in placebo group, p=0.046
  change in intranasal mucus levels of EDN: a reduction
Patients with CRS [2]; p=0.038
  changes in endoscopic scores compared to placebo: improved
Patients with CRS [2]; 20 mL 250 μg/mL each nostril twice daily, p=0.030
  mucosal thickening on CT scans compared to placebo: reduced
Patients with CRS [3]; 13/51 patients
  no effect seen, patients: 25%
Patients with CRS [3]; 18/51 patients
  endoscopically disease free, patients: 35%
Patients with CRS [3]; additional 20/51 patients
  endoscopically improved by at least one stage, patients: 39%
Patients with CRS [3]; intranasal 20 mL of 100 μg/mL twice daily, mean 11 months, 38/51 patients
  improvement of sinusitis symptoms, patients: 75%
Patients with CRS [3]; n=12
  inflammatory mucosal thickening on CT scans pre- and post-treatment: significant reduction
Patients with CRS [3]; open-label pilot trial
  safety of direct muco-administration: safe

## Cc1c(O)cccc1C(=O)N[C@@H](CSc1ccccc1)[C@H](O)CN1C[C@H]2CCCC[C@H]2C[C@H]1C(=O)NC(C)(C)C [nelfinavir]
BEAS-2B cells
  TNF-α-induced IL-6 production by BEAS-2B cells: not affected
eosinophils
  eosinophil degranulation (EDN release) induced by Alternaria extract: confirmed

## CC(C)c1nc(CN(C)C(=O)N[C@H](C(=O)N[C@@H](Cc2ccccc2)C[C@H](O)[C@H](Cc2ccccc2)NC(=O)OCc2cncs2)C(C)C)cs1 [ritonavir]
BEAS-2B cells
  TNF-α-induced IL-6 production by BEAS-2B cells: not affected
eosinophils
  eosinophil degranulation (EDN release) induced by Alternaria extract: confirmed

## GLIVKS (Synthetically generated oligonucleotide) [control scramble peptide]
PAR-2
  eosinophils' calcium response to Alternaria extract: showed no effects

## LSIGKV (Synthetically generated oligonucleotide) [PAR-2 antagonist]
BEAS-2B cells; treatment of Alternaria extract or PAR-2 antagonist
  inhibition of Alternaria-induced IL-6 production by BEAS-2B cells: ~40%
PAR-2
  eosinophils' calcium response to Alternaria extract: also inhibited
eosinophils
  eosinophil degranulation (EDN release) induced by Alternaria extract: significantly and specifically inhibited
eosinophils; listed as PAR2-inhibitory peptide
  eosinophil degranulation (EDN release) induced by Alternaria extract: inhibited
eosinophils; peptide 100 μM
  eosinophil degranulation induced by PAF: not affected
  eosinophil degranulation induced by PMA: not affected

## SLIGKV (Synthetically generated oligonucleotide) [PAR-2 agonistic peptide]
PAR-2
  eosinophils' calcium response to Alternaria extract: significantly inhibited

## alkalo-thermophilic bacillus inhibitor [ATBI]
BEAS-2B cells
  TNF-α-induced IL-6 production by BEAS-2B cells: not affected
eosinophils
  eosinophil degranulation (EDN release) induced by Alternaria extract: confirmed

## tetanus toxoid: tetanus toxoid
PBMCs; CRS patient
  CFSElow CD4+ cells: 43.2%
PBMCs; normal individual
  CFSElow CD4+ cells: 47.9%

B1: trypsin: serine protease, positive control (protein, UniProt P00760 24-246, looked up)
Serine protease 1: IVGGYTCGANTVPYQVSLNSGYHFCGGSLINSQWVVSAAHCYKSGIQVRLGEDNINVVEGNEQFISASKSIVHPSYNSNTLNNDIMLIKLKSAASLNSRVASISLPTSCASAGTQCLISGWGNTKSSGTSYPDVLKCLKAPILSDSSCKSAYPGQITSNMFCAGYLEGGKDSCQGDSGGPVVCSGKLQGIVSWGSGCAQKNKPGVYTKVCNYVSWIKQTIASN
[4]
  cleavage of PAR-2 peptide substrate: clearly cleaved
Human eosinophils
  activation of human eosinophils by proteases: activated
